According to the supplement of paper PMC10307832:

Experiments:
Test in all cases: relative viability (nuclei count vs DMSO), 5 days (fraction); higher = more cells survive
[1] = system: A-427
Summary of the method: (§1)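 Relative viability was taken as the ratio of nuclei in treated wells to nuclei in vehicle wells. Lung cancer cell lines in 1536-well plates received compounds by pin tool one day after seeding, either one drug alone or a fixed anchor-drug dose plus five library-drug doses (not always all listed) in √10 steps. Nuclei were counted on 4× images after 5 days of treatment, and values are medians of duplicate plates.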

[2] = system: NCI-H1651
Summary of the method: as §1

[3] = system: NCI-H1755
Summary of the method: as §1

[4] = system: LK-2
Summary of the method: as §1

[5] = system: A549
Summary of the method: as §1

[6] = system: NCI-H1299
Summary of the method: as §1

[7] = system: EBC-1
Summary of the method: as §1

[8] = system: CAL-12T
Summary of the method: as §1

[9] = system: Calu-6
Summary of the method: as §1

[10] = system: NCI-H1703
Summary of the method: as §1

[11] = system: IA-LM
Summary of the method: as §1

**Q.** How did the relative viability ([1]; first compound 0.001 µM) turn out when `Cc1cn(-c2cc(NC(=O)c3ccc(C)c(Nc4nccc(-c5cccnc5)n4)c3)cc(C(F)(F)F)c2)cn1` [Nilotinib] + CS(=O)(=O)N1CCN(Cc2cc3nc(-c4cccc5[nH]ncc45)nc(N4CCOCC4)c3s2)CC1 [Pictilisib] (partner 1 µM) was run?
**A.** 0.728

**Q.** And the relative viability ([1]; first compound 0.01 µM)?
**A.** 0.731

**Q.** And the relative viability ([1]; first compound 0.03162 µM)?
**A.** 0.658

**Q.** And the relative viability ([1]; first compound 0.1 µM)?
**A.** 0.11

**Q.** And the relative viability ([2]; first compound 0.001 µM)?
**A.** 0.576

**Q.** What about the relative viability ([2]; first compound 0.003162 µM) of the same compound?
**A.** 0.619

**Q.** What about the relative viability ([2]; first compound 0.01 µM) of the same compound?
**A.** 0.638

**Q.** And the relative viability ([2]; first compound 0.03162 µM)?
**A.** 0.568

**Q.** And the relative viability ([2]; first compound 0.1 µM)?
**A.** 0.308

**Q.** What about the relative viability ([3]; first compound 0.001 µM) of the same compound?
**A.** 0.445

**Q.** What about the relative viability ([3]; first compound 0.003162 µM) of the same compound?
**A.** 0.466

**Q.** And the relative viability ([3]; first compound 0.01 µM)?
**A.** 0.411

**Q.** And the relative viability ([3]; first compound 0.03162 µM)?
**A.** 0.34

**Q.** And the relative viability ([3]; first compound 0.1 µM)?
**A.** 0.261

**Q.** What about the relative viability ([4]; first compound 0.001 µM) of the same compound?
**A.** 0.614

**Q.** What about the relative viability ([4]; first compound 0.003162 µM) of the same compound?
**A.** 0.451

**Q.** And the relative viability ([4]; first compound 0.01 µM)?
**A.** 0.577

**Q.** What about the relative viability ([4]; first compound 0.03162 µM) of the same compound?
**A.** 0.594

**Q.** And the relative viability ([4]; first compound 0.1 µM)?
**A.** 0.608

**Q.** What about the relative viability ([5]; first compound 0.003162 µM) of the same compound?
**A.** 0.743

**Q.** What about the relative viability ([5]; first compound 0.01 µM) of the same compound?
**A.** 0.6

**Q.** And the relative viability ([5]; first compound 0.03162 µM)?
**A.** 0.368

**Q.** What about the relative viability ([5]; first compound 0.1 µM) of the same compound?
**A.** 0.374

**Q.** What about the relative viability ([6]; first compound 0.001 µM) of the same compound?
**A.** 0.611

**Q.** What about the relative viability ([6]; first compound 0.003162 µM) of the same compound?
**A.** 1.12

**Q.** And the relative viability ([6]; first compound 0.01 µM)?
**A.** 0.887

**Q.** What about the relative viability ([6]; first compound 0.03162 µM) of the same compound?
**A.** 0.495

**Q.** What about the relative viability ([6]; first compound 0.1 µM) of the same compound?
**A.** 0.396

**Q.** What about the relative viability ([7]; first compound 0.003162 µM) of the same compound?
**A.** 0.287

**Q.** What about the relative viability ([7]; first compound 0.01 µM) of the same compound?
**A.** 0.313

**Q.** What about the relative viability ([7]; first compound 0.03162 µM) of the same compound?
**A.** 0.289

**Q.** What about the relative viability ([7]; first compound 0.1 µM) of the same compound?
**A.** 0.253

**Q.** What about the relative viability ([8]; first compound 0.001 µM) of the same compound?
**A.** 0.45

**Q.** And the relative viability ([8]; first compound 0.01 µM)?
**A.** 0.354

**Q.** What about the relative viability ([8]; first compound 0.03162 µM) of the same compound?
**A.** 0.307

**Q.** What about the relative viability ([8]; first compound 0.1 µM) of the same compound?
**A.** 0.398

**Q.** What about the relative viability ([9]; first compound 0.001 µM) of the same compound?
**A.** 0.893

**Q.** And the relative viability ([9]; first compound 0.003162 µM)?
**A.** 0.919

**Q.** And the relative viability ([9]; first compound 0.01 µM)?
**A.** 1.06

**Q.** What about the relative viability ([9]; first compound 0.03162 µM) of the same compound?
**A.** 0.864

**Q.** And the relative viability ([9]; first compound 0.1 µM)?
**A.** 0.827

**Q.** And the relative viability ([10]; first compound 0.001 µM)?
**A.** 0.225

**Q.** What about the relative viability ([10]; first compound 0.003162 µM) of the same compound?
**A.** 0.291

**Q.** And the relative viability ([10]; first compound 0.01 µM)?
**A.** 0.19

**Q.** What about the relative viability ([10]; first compound 0.03162 µM) of the same compound?
**A.** 0.215

**Q.** What about the relative viability ([10]; first compound 0.1 µM) of the same compound?
**A.** 0.196

**Q.** And the relative viability ([11]; first compound 0.001 µM)?
**A.** 0.36

**Q.** And the relative viability ([11]; first compound 0.003162 µM)?
**A.** 0.431

**Q.** And the relative viability ([11]; first compound 0.01 µM)?
**A.** 0.426

**Q.** What about the relative viability ([11]; first compound 0.03162 µM) of the same compound?
**A.** 0.209

**Q.** What about the relative viability ([11]; first compound 0.1 µM) of the same compound?
**A.** 0.41
